# Laboratory results from patent US6479435B1, “Diaryl ethers and processes for their preparation and herbicidal and desiccant compositions containing them” (ISK Americas Incorporated, priority 1997, dated 2002).
# Legend:
# Type in all cases: in vivo
# [1] = test system: Johnsongrass (Sorghum halepense, SORHA); experiment: Pre-emerge greenhouse herbicide test, phytotoxicity rating; settings: 14 days after application, rating scale 0-100
# Procedure, shortened: (§1)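 Visual 0–100 injury rating (100 = all plants dead) taken 14 days after treatment. Rates of 125–1000 g ai/ha in acetone, 187 l/ha, were sprayed onto soil one day post-sowing; pots were surface-watered to incorporate, then bottom-watered.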
# [2] = test system: barnyardgrass (Echinochloa crusgalli, ECHCG); experiment: as above; settings: 14 days after application, rating scale 0-100
# Procedure, shortened: as §1
# [3] = test system: common ragweed (Ambrosia artemisiifolia L., AMBEL); experiment: as above; settings: 14 days after application, rating scale 0-100
# Procedure, shortened: as §1
# [4] = test system: green foxtail (Setaria viridis, SETVI); experiment: as above; settings: 14 days after application, rating scale 0-100
# Procedure, shortened: as §1
# [5] = test system: ivyleaf morningglory (Ipomoea hederacea, IPOHE); experiment: as above; settings: 14 days after application, rating scale 0-100
# Procedure, shortened: as §1
# [6] = test system: lambsquarters (Chenopodium album, CHEAL); experiment: as above; settings: 14 days after application, rating scale 0-100
# Procedure, shortened: as §1
# [7] = test system: large crabgrass (Digitaria sanguinalis, DIGSA); experiment: as above; settings: 14 days after application, rating scale 0-100
# Procedure, shortened: as §1
# [8] = test system: redroot pigweed (Amaranthus retroflexus, AMARE); experiment: as above; settings: 14 days after application, rating scale 0-100
# Procedure, shortened: as §1
# [9] = test system: sicklepod (Cassia obtusifolia, CASOB); experiment: as above; settings: 14 days after application, rating scale 0-100
# Procedure, shortened: as §1
# [10] = test system: velvetleaf (Abutilon theophrasti, ABUTH); experiment: as above; settings: 14 days after application, rating scale 0-100
# Procedure, shortened: as §1
# [11] = test system: field corn (Zea mays L., var. Dekalb 535, CORN); experiment: Pre-emerge greenhouse test, crop damage rating; settings: 14 days after application, rating scale 0-100
# Procedure, shortened: as §1
# [12] = test system: upland rice (Oryza sp., var.Tebonnet, RICE); experiment: Pre-emerge greenhouse test, crop damage rating; settings: 14 days after application, rating scale 0-100
# Procedure, shortened: as §1
# [13] = test system: soybean (Glycine max L., var. Pella 86, SOY); experiment: Pre-emerge greenhouse test, crop damage rating; settings: 14 days after application, rating scale 0-100
# Procedure, shortened: as §1
# [14] = test system: common ragweed (Ambrosia artemisiifolia L., AMBEL); experiment: Post-emerge greenhouse herbicide test, phytotoxicity rating; settings: 14 days after application
# Procedure, shortened: (§2)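 Scores use a 0 (no damage) to 100 (complete kill) scale, taken 14 days after a foliar spray. Acetone solutions with 0.25% v/v non-ionic surfactant were applied by track sprayer at 187 l/ha and 63-1000 g ai/ha to bottom-watered 2-3 leaf plants.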
# [15] = test system: Johnsongrass (Sorghum halepense, SORHA); experiment: as above; settings: 14 days after application
# Procedure, shortened: as §2
# [16] = test system: barnyardgrass (Echinochloa crusgalli, ECHCG); experiment: as above; settings: 14 days after application
# Procedure, shortened: as §2
# [17] = test system: green foxtail (Setaria viridis, SETVI); experiment: as above; settings: 14 days after application
# Procedure, shortened: as §2
# [18] = test system: ivyleaf morningglory (Ipomoea hederacea, IPOHE); experiment: as above; settings: 14 days after application
# Procedure, shortened: as §2
# [19] = test system: lambsquarters (Chenopodium album, CHEAL); experiment: as above; settings: 14 days after application
# Procedure, shortened: as §2
# [20] = test system: large crabgrass (Digitaria sanguinalis, DIGSA); experiment: as above; settings: 14 days after application
# Procedure, shortened: as §2
# [21] = test system: redroot pigweed (Amaranthus retroflexus, AMARE); experiment: as above; settings: 14 days after application
# Procedure, shortened: as §2
# [22] = test system: sicklepod (Cassia obtusifolia, CASOB); experiment: as above; settings: 14 days after application
# Procedure, shortened: as §2
# [23] = test system: velvetleaf (Abutilon theophrasti, ABUTH); experiment: as above; settings: 14 days after application
# Procedure, shortened: as §2
# [24] = test system: field corn (Zea mays L., var. Dekalb 535, CORN); experiment: Post-emerge greenhouse test, crop damage rating; settings: 14 days after application
# Procedure, shortened: as §2
# [25] = test system: upland rice (Oryza sp., var.Tebonnet, RICE); experiment: Post-emerge greenhouse test, crop damage rating; settings: 14 days after application
# Procedure, shortened: as §2
# [26] = test system: soybean (Glycine max L., var. Pella 86, SOY); experiment: Post-emerge greenhouse test, crop damage rating; settings: 14 days after application
# Procedure, shortened: as §2
compound,measurement,setting,value
O=c1n(CCCF)nnn1-c1cc(Oc2ncc(Br)cn2)c(Cl)cc1F [Compound 6-16],phytotoxicity rating SORHA,[1]; 125 g ai/ha,40
same,phytotoxicity rating SORHA,[1]; 500 g ai/ha,80
same,phytotoxicity rating ECHCG,[2]; 125 g ai/ha,0
same,phytotoxicity rating ECHCG,[2]; 500 g ai/ha,90
same,phytotoxicity rating AMBEL,[3]; 125 g ai/ha,0
same,phytotoxicity rating AMBEL,[3]; 500 g ai/ha,70
same,phytotoxicity rating SETVI,[4]; 125 g ai/ha,80
same,phytotoxicity rating SETVI,[4]; 500 g ai/ha,100
same,phytotoxicity rating IPOHE,[5]; 125 g ai/ha,50
same,phytotoxicity rating IPOHE,[5]; 500 g ai/ha,30
same,phytotoxicity rating CHEAL,[6]; 125 g ai/ha,100
same,phytotoxicity rating CHEAL,[6]; 500 g ai/ha,100
same,phytotoxicity rating DIGSA,[7]; 125 g ai/ha,80
same,phytotoxicity rating DIGSA,[7]; 500 g ai/ha,100
same,phytotoxicity rating AMARE,[8]; 125 g ai/ha,100
same,phytotoxicity rating AMARE,[8]; 500 g ai/ha,100
same,phytotoxicity rating CASOB,[9]; 125 g ai/ha,50
same,phytotoxicity rating CASOB,[9]; 500 g ai/ha,30
same,phytotoxicity rating ABUTH,[10]; 125 g ai/ha,100
same,phytotoxicity rating ABUTH,[10]; 500 g ai/ha,100
same,crop damage rating CORN,[11]; 125 g ai/ha,0
same,crop damage rating CORN,[11]; 500 g ai/ha,15
same,crop damage rating RICE,[12]; 125 g ai/ha,0
same,crop damage rating RICE,[12]; 500 g ai/ha,50
same,crop damage rating SOY,[13]; 125 g ai/ha,0
same,crop damage rating SOY,[13]; 500 g ai/ha,10
same,AMBEL phytotoxicity rating (0-100),[14]; 63 g al/ha,15
same,AMBEL phytotoxicity rating (0-100),[14]; 500 g al/ha,20
same,SORHA phytotoxicity rating (0-100),[15]; 63 g al/ha,0
same,SORHA phytotoxicity rating (0-100),[15]; 500 g al/ha,20
same,ECHCG phytotoxicity rating (0-100),[16]; 63 g al/ha,0
same,ECHCG phytotoxicity rating (0-100),[16]; 500 g al/ha,30
same,SETVI phytotoxicity rating (0-100),[17]; 63 g al/ha,20
same,SETVI phytotoxicity rating (0-100),[17]; 500 g al/ha,50
same,IPOHE phytotoxicity rating (0-100),[18]; 63 g al/ha,95
same,IPOHE phytotoxicity rating (0-100),[18]; 500 g al/ha,95
same,CHEAL phytotoxicity rating (0-100),[19]; 63 g al/ha,80
same,CHEAL phytotoxicity rating (0-100),[19]; 500 g al/ha,100
same,DIGSA phytotoxicity rating (0-100),[20]; 63 g al/ha,0
same,DIGSA phytotoxicity rating (0-100),[20]; 500 g al/ha,0
same,AMARE phytotoxicity rating (0-100),[21]; 63 g al/ha,70
same,AMARE phytotoxicity rating (0-100),[21]; 500 g al/ha,100
same,CASOB phytotoxicity rating (0-100),[22]; 63 g al/ha,0
same,CASOB phytotoxicity rating (0-100),[22]; 500 g al/ha,30
same,ABUTH phytotoxicity rating (0-100),[23]; 63 g al/ha,100
same,ABUTH phytotoxicity rating (0-100),[23]; 500 g al/ha,100
same,CORN crop damage rating (0-100),[24]; 63 g al/ha,10
same,CORN crop damage rating (0-100),[24]; 500 g al/ha,20
same,RICE crop damage rating (0-100),[25]; 63 g al/ha,30
same,RICE crop damage rating (0-100),[25]; 500 g al/ha,40
same,SOY crop damage rating (0-100),[26]; 63 g al/ha,40
same,SOY crop damage rating (0-100),[26]; 500 g al/ha,60
